# Measurements from patent US20150025120A1, “PYRAZOLE-ALCOHOL COMPOUNDS AND PHARMACEUTICAL USE THEREOF” (JAPAN TOBACCO INC., priority 2013, published 2015).
# Experiments:
# human PDHK2 (hPDHK2) = molecular target: T1, human PDHK2 (hPDHK2) (Homo sapiens, UniProt Q15119); experiment: Inhibitory action of PDHK2 activity in vitro (residual PDH activity after kinase reaction); assay type: biochemical
# T1 construct: made in house; host or cells: Escherichia coli BL21(DE3), pET17b
# Protocol: The inhibitory action of PDHK activity was assessed indirectly by measuring the residual PDH activity after kinase reaction in the presence of a test compound.
# In the case of human PDHK2 (hPDHK2, Genbank Accession No. BC040478.1), modified hPDHK2 cDNA wherein FLAG-Tag sequence was added to the N terminus of hPDHK2 cDNA clone (pReceiver-M01/PDK2-GeneCopoeia) was prepared by PCR and cloned into a vector (pET17b-Novagen). The recombinant construct was transformed into Escherichia coli (DH5α-TOYOBO). The recombinant clones were identified, and plasmid DNA was isolated and subjected to the DNA sequence analysis. One clone which had the expected nucleic acid sequence was selected for expression work.
# For expression of hPDHK2 activity, Escherichia coli strain BL21(DE3) cells (Novagen) were transformed with the pET17b vector containing modified hPDHK2 cDNA. The Escherichia coli were grown to an optical density 0.6 ([…]) at 30° C. Protein expression was induced by the addition of 500 μmol/L isopropyl-β-thiogalactopyranoside. The Escherichia coli were cultured at 30° C. for 5 hr and harvested by centrifugation. Resuspension of the Escherichia coli paste was disrupted by a microfluidizer. FLAG-Tagged protein was purified using FLAG affinity gel. The gel was washed with 20 mmol/L HEPES-NaOH, 500 mmol/L sodium chloride, 1% ethylene glycol, and 0.1% Pluronic F-68 (pH 8.0), and the binding protein was eluted with 20 mmol/L HEPES-NaOH, 100 μg/mL FLAG peptide, 500 mmol/L sodium chloride, 1% ethylene glycol, and 0.1% Pluronic F-68 (pH 8.0). The eluted fractions containing FLAG-Tagged protein were pooled, dialyzed against 20 mmol/L HEPES-NaOH, 150 mmol/L sodium chloride, 0.5 mmol/L EDTA, 1% ethylene glycol, and 0.1% Pluronic F-68 (pH 8.0), and preserved at −80° C.
# 0.05 U/mL PDH and 0.8 μg/mL hPDHK2 were mixed in a buffer (50 mmol/L 3-morpholinopropanesulfonic acid (pH 7.0), 20 mmol/L dipotassium hydrogen phosphate, 60 mmol/L potassium chloride, 2 mmol/L magnesium chloride, 0.4 mmol/L EDTA, and 0.2% Pluronic F-68, 2 mmol/L dithiothreitol), and the mixture was incubated at 4° C. overnight to obtain a PDH/hPDHK2 complex. The test compounds were diluted with DMSO. […] DMSO (1.5 μL) was added to control wells instead of the test compound. […] The mixture was incubated at room temperature for 90 min, and the residual PDH activity was measured. The absorbance at 340 nm before and after PDH reaction was measured using a microplate reader to detect NADH produced by the PDH reaction. The hPDHK2 inhibition rate (%) of the test compound was calculated from the formula [{(PDH activity of test compound−PDH activity of control)/PDH activity of blank−PDH activity of control)}×100].
# tissue PDH activity = experiment: Ex vivo PDH activation assay (liver and epididymal adipose tissue after oral administration); assay type: in vivo, Sprague-Dawley rats; conditions: 3 mg/kg, rat, mean ± standard deviation
# Protocol: The action of test compound on tissue PDH activity was evaluated. NADH production was detected via p-iodonitrotetrazolium violet (INT)-coupled system to measure PDH activity.
# Normal male Sprague-Dawley rats were randomly allocated to the vehicle group and the test compound groups. The vehicle (0.5% aqueous methylcellulose solution, 5 mL/kg) or the test compound was orally administered to the rats. At 5 or 20 hr after administration, the rats were anesthetized with an intraperitoneal injection of sodium pentobarbital (60 mg/kg), and liver slices and epididymal adipose tissues were collected.
# (§1) To the liver slices were rapidly added 9 volumes of ice-cold homogenization buffer (0.25 mol/L sucrose, 5 mmol/L tris(hydroxymethyl)aminomethane hydrochloride (pH 7.5), 2 mmol/L EDTA), and the mixtures were homogenized using a Polytron homogenizer. The homogenates were centrifuged at 600×g, 4° C. for 10 min to obtain the supernatant. The supernatants (1 mL) were centrifuged at 16,000×g, 4° C. for 10 min to collect the precipitates. The precipitates were washed by resuspension in the homogenization buffer (1 mL) and centrifuged in the same manner. The precipitates were frozen with liquid nitrogen and stored at −80° C. as the liver mitochondrial fraction.
# as §1, with “adipose tissues” for “liver slices”, “3” for “9”, “of an” for “of”, “buffer,” for “buffer (0.25 mol/L sucrose, 5 mmol/L tris(hydroxymethyl)aminomethane hydrochloride (pH 7.5), 2 mmol/L EDTA),”, “supernatants” for “supernatants (1 mL)”, “adipose tissue” for “liver”
# The mitochondrial fractions were thawed and suspended with the sample buffer (0.25 mol/L sucrose, 20 mmol/L tris(hydroxymethyl)aminomethane hydrochloride (pH 7.5), 50 mmol/L potassium chloride, and 1 mL/L 4-(1,1,3,3-tetramethylbutyl)phenyl-polyethylene glycol (Triton X-100)). Active PDH activity (PDHa activity) and total PDH activity (PDHt activity) were measured to evaluate the PDH activity. For the measurement of the PDHt activity, equal amounts of the mitochondrial suspension and the activation buffer (0.25 mol/L sucrose, 20 mmol/L tris(hydroxymethyl)aminomethane hydrochloride (pH 7.5), 50 mmol/L potassium chloride, 1 mL/L Triton X-100, 4 mmol/L calcium chloride, 40 mmol/L magnesium chloride, 10 mmol/L sodium dichloroacetate) were mixed, and the mixtures were incubated at 37° C. for 10 min. Forty microliters of the mitochondrial suspensions diluted with a sample buffer were added to a 96-well microplate for activity measurement and blank measurement. Then 180 μL of the reaction mixture (0.056 mmol/L potassium phosphate buffer (pH 7.5), 5.6 mmol/L DL-carnitine, 2.8 mmol/L NAD, 0.22 mmol/L thiamin pyrophosphate, 0.11 mmol/L Coenzyme A, 1.1 mL/L Triton X-100, 1.1 mmol/L magnesium chloride, 1.1 g/L bovine serum albumin, 0.67 mmol/L INT, 7.2 μmol/L phenazine methosulfate, 28 mmol/L sodium oxamate) was added to each well, and then 20 μL of 50 mmol/L sodium pyruvate for activity measurement or water for blank measurement were added. The mixtures were incubated at room temperature under shading. The absorbances at 500-750 nm, which were attributable to reduction of INT, the final electron acceptor, were measured using a microplate reader over time and the changes in the absorbance were calculated. The PDH activity was calculated by subtraction of the change in absorbance of the blank well from that of the activity measurement well. The percentage of the PDHa activity to the PDHt activity was calculated and taken as an index of the PDH activation.
# [1] = adipose tissue, 5 hr after oral administration
# [2] = adipose tissue, 20 hr after oral administration
# [3] = liver, 5 hr after oral administration
# [4] = liver, 20 hr after oral administration
Structure (SMILES),IC50 (human PDHK2 (hPDHK2)) [nM],PDHa activity (% PDHt activity) (tissue PDH activity; [1]),PDHa activity (% PDHt activity) (tissue PDH activity; [2]),PDHa activity (% PDHt activity) (tissue PDH activity; [3]),PDHa activity (% PDHt activity) (tissue PDH activity; [4])
"C[C@H](O)COc1cc(-c2cnn(CC(C)(C)O)c2)c2c(c1)[C@@](O)(C(F)(F)F)c1ccccc1-2 [compound (1), (9R)-4-[1-(2-hydroxy-2-methylpropyl)-1H-pyrazol-4-yl]-2-((2S)-2-hydroxypropoxy)-9-(trifluoromethyl)-9H-fluoren-9-ol]",9.2,64 ± 5,56 ± 6,60 ± 8,13 ± 2
"CC(C)(O)COc1cc(-c2cnn(CC(C)(C)O)c2)c2c(c1)[C@@](O)(C(F)(F)F)c1ccccc1-2 [compound (2), (9R)-2-(2-hydroxy-2-methylpropoxy)-4-[1-(2-hydroxy-2-methylpropyl)-1H-pyrazol-4-yl]-9-(trifluoromethyl)-9H-fluoren-9-ol]",9.7,58 ± 10,36 ± 7,67 ± 9,16 ± 9
"CC(C)(O)CCCOc1cc(-c2cnn(CC(C)(C)O)c2)c2c(c1)[C@@](O)(C(F)(F)F)c1ccccc1-2 [compound (4), (9R)-2-(4-hydroxy-4-methylpentyloxy)-4-[1-(2-hydroxy-2-methylpropyl)-1H-pyrazol-4-yl]-9-(trifluoromethyl)-9H-fluoren-9-ol]",6.6,62 ± 13,–,68 ± 11,–
"NC(=O)Cn1cc(-c2cc(OCCC34CC5CC(CC(O)(C5)C3)C4)cc3c2-c2ccccc2[C@]3(O)C(F)(F)F)cn1 [compound (A), 2-(4-{(9R)-9-Hydroxy-2-[2-(3-hydroxyadamantan-1-yl)ethoxy]-9-(trifluoromethyl)-9H-fluoren-4-yl}-1H-pyrazol-1-yl)acetamide, reference compound]",–,32 ± 14,24 ± 7,35 ± 6,16 ± 10
"Cn1cc(-c2cc(OCC(C)(C)O)cc3c2-c2ccccc2[C@]3(O)C(F)(F)F)cn1 [compound (B), (9R)-2-(2-Hydroxy-2-methylpropoxy)-4-(1-methyl-1H-pyrazol-4-yl)-9-(trifluoromethyl)-9H-fluoren-9-ol, reference compound]",–,59 ± 5,30 ± 4,43 ± 7,10 ± 3
